For data set [1], the system named is glucose tolerance and insulin secretion. To be noted: subjects with impaired glucose tolerance; DCI 1200 mg/day for 2 weeks; restored to normal levels; cited from earlier work.
Another data set relates to insulin sensitivity. To be noted: oral supplementation, insulin resistant individuals; cited from earlier work.
Data set [2] deals with ovulation in women afflicted with polycystic ovary syndrome. To be noted: 44 women with PCOS; DCI 1200 mg/day for 6-8 weeks; placebo 27%; cited from earlier work.
Data set [3] in a line: Stability in concentrated aqueous acid (HCl). Format: physicochemical. To be noted: about 5 N to 12 N HCl, about 65° C. to about 110° C.; conditions that destroy other sugars and demethylate D-Pinitol. The source says:
Therefore this single reaction provides D-chiro-inositol that is substantially free of other contaminating carbohydrates, thus eliminating the need for subsequent purification techniques.
One aspect of the invention involves the conversion of […] a concentrated acid. […] Thus a crude D-chiro-inositol composition comprising one or more components where at least 10% (w/w) of the mass is a D-chiro-inositol moiety is subject to concentrated acid in a solution of about 5 N to 12 N HCl at a temperature in the range of about 65° C. to about 110° C. for a period of time.

Structures are written as SMILES.

On to `OC1C(O)C(O)C(O)C(O)C1O` [DCI, D-chiro-inositol], for which, in data set [1], the glucose tolerance entry is given as “restored” and the insulin secretion result is recorded as “restored”. Moreover, in the data set with insulin sensitivity, the insulin sensitivity entry is “improves insulin sensitivity”. Moreover, the “ovulation, proportion of patients” value in data set [2] was 86%. Further, in data set [3], the “stability under acidic conditions” value is on record as “stable”.

Source of the values: patent US6660891B2, “Methods for the production of D-chiro-inositol and the use of D-chiro inositol obtained therefrom” (Insmed Incorporated, priority 2000, dated 2003).
